The values below come from patent publication US10610507B2, “Methods for the treatment of sialorrhea” (NeuRX Pharmaceuticals LLC, priority 2012, dated 2020).

Bounds are passed on as bounds.

As usually defined, the half-life is the time in which the quantity being followed falls by half. One may read the microsomal CLint as the capacity of the preparation to metabolise the compound, expressed as a volume cleared per time. Read a high microsomal CLint as faster metabolism.

Data set [1] is described as follows: Human liver microsome incubation study (metabolic stability). For orientation: Liver microsomes are a subcellular fraction often used to study metabolism.
The conditions of data set [2]: cited from earlier work.
A short description of the next data set: in vitro. To be noted: human, liver microsomes.
Where [3] appears, read: human liver microsome incubation.

On to `CCNCC#CCOC(=O)C(O)(c1ccccc1)C1CCCCC1` (stereo not shown) [N-desethyloxybutynin, 4-(ethylamino) but-2-ynyl2-cyclohexyl-2-hydroxy-2-phenylacetate], for which the “stability to metabolism by human liver microsomes relative to oxybutynin” value in data set [1] (compared with oxybutynin) is reported as 10 times. Moreover, in data set [1] (setting [3]), the Clint is given as 0.0218 ml/min/mg protein and the “Half Life” value is given as >60 (63.6) mins.

As to `CCN(CC)CC#CCOC(=O)C(O)(c1ccccc1)C1CCCCC1` (racemic) [Oxybutynin], the absolute bioavailability entry in data set [2] (administered orally) is “about 6%”. Further, the oral bioavailability entry in data set [2] (after oral administration, pre-systemic metabolism) is “approximately 6.2%”. Moreover, in data set [2] (after oral administration), the “inter individual variation in maximal oxybutynin plasma concentration (Cmax)” value is 8 fold and the “inter individual variation in oxybutynin AUC” value is given as 13 fold. Also, the “increase of oxybutynin plasma levels” value in data set [2] (co-administered with ketoconazole vs without ketoconazole) is recorded as 3-4 fold. In “in vitro”, this compound returned a half-life of 5.2 min and a microsomal CLint of 267 µL/min/mg.
